The target of one assay is T1, RET (V804L) (Homo sapiens, UniProt P07949, V804L).
T1 construct: purchased Reaction Biology Corporation (assay run at the CRO)
As to the kind of experiment: Biochemical kinase assay (Reaction Biology, 33P ATP). Conditions: 10 μM ATP. As for the experimental part: (§1) The biochemical kinase assay was performed at Reaction Biology Corporation (www.reactionbiology.com, Malvern, Pa.) following the procedures described in the reference (Anastassiadis T, et al Nat Biotechnol. 2011, 29, 1039). Specific kinase/substrate pairs along with required cofactors were prepared in reaction buffer; 20 mM Hepes pH 7.5, 10 mM MgCl2, 1 mM EGTA, 0.02% Brij35, 0.02 mg/ml BSA, 0.1 mM Na3VO4, 2 mM DTIT, 1% DMSO. Compounds were delivered into the reaction, followed ˜20 minutes later by addition of a mixture of ATP (Sigma, St. Louis Mo.) and ^33P ATP (Perkin Elmer, Waltham Mass.) to a final concentration of 10 μM. Reactions were carried out at room temperature for 120 min, followed by spotting of the reactions onto P81 ion exchange filter paper (Whatman Inc., Piscataway, N.J.). Unbound phosphate was removed by extensive washing of filters in 0.75% phosphoric acid. […] IC50 values and curve fits were obtained using Prism (GraphPad Software).

For another assay, the target named is T2, RET (V778I) (Homo sapiens, UniProt P07949, V778I).
T2 construct: purchased Reaction Biology Corporation (assay run at the CRO)
T2 sequence (P07949 29-1114 V778I): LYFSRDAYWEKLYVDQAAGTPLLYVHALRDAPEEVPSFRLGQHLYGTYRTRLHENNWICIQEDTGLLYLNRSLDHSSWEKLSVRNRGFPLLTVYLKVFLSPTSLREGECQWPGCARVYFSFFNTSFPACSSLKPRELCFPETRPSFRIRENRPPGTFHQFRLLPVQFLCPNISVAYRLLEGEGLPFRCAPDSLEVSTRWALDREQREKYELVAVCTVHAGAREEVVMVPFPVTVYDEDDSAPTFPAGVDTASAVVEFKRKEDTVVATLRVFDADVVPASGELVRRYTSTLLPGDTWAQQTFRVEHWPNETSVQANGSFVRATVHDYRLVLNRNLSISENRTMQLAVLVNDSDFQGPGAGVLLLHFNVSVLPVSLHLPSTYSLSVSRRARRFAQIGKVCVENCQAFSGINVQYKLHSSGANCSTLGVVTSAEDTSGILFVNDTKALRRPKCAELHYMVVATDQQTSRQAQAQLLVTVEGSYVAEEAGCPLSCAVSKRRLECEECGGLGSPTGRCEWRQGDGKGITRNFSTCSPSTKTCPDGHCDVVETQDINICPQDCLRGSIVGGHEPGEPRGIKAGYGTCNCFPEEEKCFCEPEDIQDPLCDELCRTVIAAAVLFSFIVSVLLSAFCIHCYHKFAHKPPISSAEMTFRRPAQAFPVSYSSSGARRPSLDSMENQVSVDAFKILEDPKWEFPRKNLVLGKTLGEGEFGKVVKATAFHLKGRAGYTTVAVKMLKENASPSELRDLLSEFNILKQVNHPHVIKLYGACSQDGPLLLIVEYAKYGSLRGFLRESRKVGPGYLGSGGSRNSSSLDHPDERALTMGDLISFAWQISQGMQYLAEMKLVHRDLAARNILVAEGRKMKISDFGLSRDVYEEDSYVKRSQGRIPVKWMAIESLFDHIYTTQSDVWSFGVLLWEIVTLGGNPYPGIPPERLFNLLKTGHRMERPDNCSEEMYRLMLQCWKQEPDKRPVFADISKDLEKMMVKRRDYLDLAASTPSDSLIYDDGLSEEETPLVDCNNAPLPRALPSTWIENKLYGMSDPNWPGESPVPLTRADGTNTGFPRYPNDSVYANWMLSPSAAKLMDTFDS
The assay is described as above. The following applies: 10 μM ATP. As to the method: as §1

For the next assay, the target named is T3, RET (S904F) (Homo sapiens, UniProt P07949, S904F).
T3 construct: purchased Reaction Biology Corporation (assay run at the CRO)
The description is as above. Conditions: 10 μM ATP. As to the method: as §1

The next assay concerns the target T4, FYN (Homo sapiens, UniProt P06241).
T4 construct: purchased Reaction Biology Corporation (assay run at the CRO)
The description is as above. The following applies: 10 μM ATP. As for the experimental part: as §1

The target of the next assay is T5, HCK (Homo sapiens, UniProt P08631).
T5 construct: purchased Reaction Biology Corporation (assay run at the CRO)
Described as above. The following applies: 10 μM ATP. As to the method:
as §1

The next assay has as its target T6, RET-PRKAR1A (PTC2) (Homo sapiens, UniProt P07949).
T6 construct: fusion transcripts composed of the 3′ end of RET kinase domain and the 5′ end of separate partner genes; PRKAR1A N-terminal part (fusion partner); purchased Reaction Biology Corporation (assay run at the CRO); the other entry of the earlier key: PRKAR1A (P10644, cAMP-dependent protein kinase type I-alpha regulatory subunit)
The description is as above. Conditions: 10 μM ATP. As for the experimental part: as §1

For the next assay, the target named is T7, RET (A883F) (Homo sapiens, UniProt P07949, A883F).
T7 construct: purchased Reaction Biology Corporation (assay run at the CRO)
The description is as above. The following applies: 10 μM ATP. As for the experimental part: as §1

Another assay concerns the target T8, RET (R813Q) (Homo sapiens, UniProt P07949, R813Q).
T8 construct: purchased Reaction Biology Corporation (assay run at the CRO)
The assay is described as above. The following applies: 10 μM ATP. As to the method:
as §1

A further assay deals with T9, RET (S904A) (Homo sapiens, UniProt P07949, S904A).
T9 construct: purchased Reaction Biology Corporation (assay run at the CRO)
The description is as above. The following applies: 10 μM ATP. As for the experimental part: as §1

The next assay addresses T10, RET (M918T) (Homo sapiens, UniProt P07949, M918T).
T10 construct: purchased Reaction Biology Corporation (assay run at the CRO)
The assay is described as above. Conditions: 10 μM ATP. As to the method:
as §1

Another assay deals with T11, RET-NCOA4 (PTC3) (Homo sapiens, UniProt P07949).
T11 construct: fusion transcripts composed of the 3′ end of RET kinase domain and the 5′ end of separate partner genes; NCOA4 N-terminal part (fusion partner); purchased Reaction Biology Corporation (assay run at the CRO)
T11 sequence (P07949 with tags, fused parts or gaps): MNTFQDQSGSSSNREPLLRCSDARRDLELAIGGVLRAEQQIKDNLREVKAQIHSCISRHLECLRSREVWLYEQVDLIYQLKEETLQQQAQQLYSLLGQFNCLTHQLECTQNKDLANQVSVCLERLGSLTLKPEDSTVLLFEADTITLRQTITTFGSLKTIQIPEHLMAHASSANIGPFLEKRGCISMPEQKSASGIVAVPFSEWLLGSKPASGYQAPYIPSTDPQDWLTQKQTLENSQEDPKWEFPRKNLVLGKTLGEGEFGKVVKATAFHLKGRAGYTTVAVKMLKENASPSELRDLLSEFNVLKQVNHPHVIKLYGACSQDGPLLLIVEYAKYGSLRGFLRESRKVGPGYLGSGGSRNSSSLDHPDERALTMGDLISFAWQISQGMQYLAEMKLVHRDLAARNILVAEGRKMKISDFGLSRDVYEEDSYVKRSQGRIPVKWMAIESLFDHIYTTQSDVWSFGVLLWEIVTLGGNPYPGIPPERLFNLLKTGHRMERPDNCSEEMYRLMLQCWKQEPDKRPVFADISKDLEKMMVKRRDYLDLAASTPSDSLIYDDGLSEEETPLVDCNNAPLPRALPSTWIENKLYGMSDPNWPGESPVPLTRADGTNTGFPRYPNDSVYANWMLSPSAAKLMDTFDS
The description is as above. The following applies: 10 μM ATP. As for the experimental part:
as §1

For the next assay, the target named is T12, YES (Homo sapiens, UniProt P07947).
T12 construct: purchased Reaction Biology Corporation (assay run at the CRO)
Described as above. Conditions: 10 μM ATP. As to the method:
as §1

For another assay, the target named is T13, Src (Homo sapiens, UniProt P12931).
T13 construct: purchased Reaction Biology Corporation (assay run at the CRO)
The description is as above. The following applies: 10 μM ATP. As for the experimental part: as §1

In another assay the target is T14, RET (G691S) (Homo sapiens, UniProt P07949, G691S).
T14 construct: purchased Reaction Biology Corporation (assay run at the CRO)
The assay is described as above. Conditions: 10 μM ATP. As for the experimental part: as §1

Another assay concerns the target T15, RET (E762Q) (Homo sapiens, UniProt P07949, E762Q).
T15 construct: purchased Reaction Biology Corporation (assay run at the CRO)
The description is as above. The following applies: 10 μM ATP. As to the method:
as §1

A further assay addresses T16, RET (R749T) (Homo sapiens, UniProt P07949, R749T).
T16 construct: purchased Reaction Biology Corporation (assay run at the CRO)
The assay is described as above. Conditions: 10 μM ATP. As for the experimental part:
as §1

Another assay has as its target T17, LYN (Homo sapiens, UniProt P07948).
T17 construct: purchased Reaction Biology Corporation (assay run at the CRO)
The assay is described as above. The following applies: 10 μM ATP. As to the method:
as §1

A further assay addresses T18, RET (S891A) (Homo sapiens, UniProt P07949, S891A).
T18 construct: purchased Reaction Biology Corporation (assay run at the CRO)
The description is as above. Conditions: 10 μM ATP. As for the experimental part:
as §1

The target in a further assay is T19, RET (Homo sapiens, UniProt P07949).
T19 construct: purchased Reaction Biology Corporation (assay run at the CRO)
T19 sequence (P07949 29-1114): as the sequence (P07949 29-1114 V778I) above, with I750V counted along it
The description is as above. Conditions: 10 μM ATP. As to the method:
as §1

A further assay has as its target T20, RET (Y791F) (Homo sapiens, UniProt P07949, Y791F).
T20 construct: purchased Reaction Biology Corporation (assay run at the CRO)
The description is as above. Conditions: 10 μM ATP. As to the method: as §1

In the next assay the target is T21, RET-CCDC6 (PTC1) (Homo sapiens, UniProt P07949).
T21 construct: fusion transcripts composed of the 3′ end of RET kinase domain and the 5′ end of separate partner genes; CCDC6 N-terminal part (fusion partner); purchased Reaction Biology Corporation (assay run at the CRO); the other entry of the earlier key: CCDC6 (Q16204, Coiled-coil domain-containing protein 6)
The assay is described as above. The following applies: 10 μM ATP. As to the method:
as §1

The next assay addresses T22, RET (V804M) (Homo sapiens, UniProt P07949, V804M).
T22 construct: purchased Reaction Biology Corporation (assay run at the CRO)
The description is as above. The following applies: 10 μM ATP. As to the method:
as §1

The next assay concerns the target T23, BaF3 EML4-ALK (Homo sapiens, UniProt Q9UM73).
T23 construct: The EML4-ALK gene (variant 1) was synthesized at GenScript and cloned into pCDH-CMV-MCS-EF1-Puro plasmid (System Biosciences, Inc); fused on or other part: Q9HC35 (Echinoderm microtubule-associated protein-like 4)
As to the kind of experiment: Cell proliferation assay (CellTiter-Glo, 72 hours). Format: cell-based. Conditions: anti-cell proliferation. In a few lines:
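Ba/F3 cells were stably transduced with wild-type EML4-ALK variant 1 and selected for IL-3-independent growth. Cells were seeded for 24 h, then exposed to compounds for 72 h at 37 °C, 5% CO2. Viability was read as ATP luminescence and IC50 values were fitted.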
For orientation: ATP-based viability assays read luminescence as a measure of living cells.

Bounds are passed on as bounds.

The term IC50 denotes the midpoint of a concentration-inhibition curve. Higher therefore signals a need for much substance. In general, GI50 refers to the concentration that inhibits growth by half.

T15 sequence (P07949 29-1114 E762Q): as the sequence (P07949 29-1114 V778I) above, with E734Q, I750V counted along it
T16 sequence (P07949 29-1114 R749T): as the sequence (P07949 29-1114 V778I) above, with R721T, I750V counted along it

Consider `C[C@H]1CNC(=O)c2cnn3cc4c(nc23)N(Cc2cc(F)ccc2O1)[C@@H]1CCC[C@@H]1O4` [Compound 1, (3aR,11S,20aS)-7-fluoro-11-methyl-2,3,3a,12,13,20a-hexahydro-1H,5H-17-19-(metheno)cyclopenta[5,6][1,4] oxazino[3,4-i]pyrazolo[4,3-f][1,4,8,10]benzoxatriacyclotridecin-14(11H)-one], for which the half-maximal inhibitory concentration (IC50) on RET (V804L) is 10 nM; on RET (V778I), under 0.0508 nM; against RET (S904F) it was 0.0621 nM; against FYN it was 1.81 nM; against HCK it was 1.95 nM; against RET-PRKAR1A (PTC2), 0.129 nM. For the same molecule, the IC50 against RET (A883F) amounted to 0.52 nM; on RET (R813Q), 0.341 nM; at RET (S904A) it was 0.159 nM; against RET (M918T), 0.114 nM; at RET-NCOA4 (PTC3), 0.0635 nM; on YES, 1.72 nM. In addition, the IC50 is 0.875 nM on Src; 3.01 nM at RET (G691S); 2.07 nM at RET (E762Q); 0.271 nM against RET (R749T); 1.97 nM at LYN; 0.664 nM on RET (S891A). Moreover, the IC50 against RET was 0.0994 nM; on RET (Y791F), under 0.0508 nM; against RET-CCDC6 (PTC1) it was 0.0893 nM; against RET (V804M), 7.86 nM. For the same molecule, the GI50 at BaF3 EML4-ALK came out at 211 nM.
For the molecule `C[C@H]1CNC(=O)c2cnn3cc4c(nc23)N(Cc2cc(F)cnc2O1)[C@@H]1CCC[C@@H]1O4` [Compound 5, (3aR,11S,20aS)-7-fluoro-11-methyl-2,3,3a,12,13,20a-hexahydro-1H,5H-17-19-(metheno)cyclopenta[5,6][1,4] oxazino[3,4-i]pyrazolo[4,3-f]pyrido[3,2-l][1,4,8,10]oxatriazacyclotridecin-14(11H)-one], the IC50 against RET (V804L) worked out at 2350 nM; at RET (V778I), 0.233 nM; on RET (S904F) it was 0.364 nM; at FYN it was 1.94 nM; against HCK it was 2.71 nM; against RET-PRKAR1A (PTC2), 0.29 nM. Further, the IC50 against RET (A883F) is 3.08 nM; at RET (R813Q) it was 2.46 nM; at RET (S904A), 1.22 nM; on RET (M918T) it was 1.42 nM; against RET-NCOA4 (PTC3) it was 0.691 nM; against YES, 2.64 nM. In addition, the IC50 on Src is 1.46 nM; against RET (G691S) it was 0.941 nM; against RET (E762Q), 0.58 nM; on RET (R749T), 0.32 nM; against LYN, 2.03 nM; on RET (S891A) it was 0.303 nM. The IC50 against RET was found to be 1.01 nM; at RET (Y791F), 7.95 nM; against RET-CCDC6 (PTC1), 1.97 nM; against RET (V804M) it was 18.8 nM. On BaF3 EML4-ALK, this molecule had a GI50 of 516 nM.

These data come from US10745416B2, “Macrocyclic compounds for treating disease” (Turning Point Therapeutics, Inc., priority 2017, dated 2020).
